Results on three compounds are retold here after patent publication US20250277272A1, “CANCER TREATMENTS AND METHODS OF SELECTING SAME” (The General Hospital Corporation, priority 2016, published 2025).

One assay deals with WM902BR cells. Description: MTS assay with the ERK inhibitor, WM902 (Stag2 WT) and WM902BR (Stag2 mutant). The format is cell-based. The settings on record: 3 days, two independent experiments. How it is done:
Both WM902 (Stag2 WT) and WM902BR (Stag2 mutant) were treated with various concentrations of ERK inhibitor SCH772984 for 3 days, before MTS assays were performed. Data were from two independent experiments: Experiment A (FIG. 11A) and Experiment B (FIG. 11B).
(§1) Cell culture: All melanoma cell lines used in this study contain BRAF^Val600Glu mutations, except as otherwise indicated. A375 and SKMEL28 cells were purchased from the American Type Culture Collection (ATCC). LOX-IVMI cells were obtained from the Division of Cancer Treatment and Diagnosis. National Cancer Institute. (NCI-DCTD) repository. WM902, WM902-BR, WM983, WM983-BR and MEL1617 cell lines were obtained from Dr. Meenhard Herlyn (Wistar Institute). Immortalized Braf-null mouse embryonic fibroblasts (MEFs) were a gift from Dr. Catrin Pritchard (University of Leicester)^38. 501MEL and SKMEL103 cells, harboring NRAS mutations, were gifts from Dr. Lynda Chin (MD Anderson Cancer Center) and Dr. Jonathon Zippin (Weill Cornell Medical College), respectively. These cell lines were not authenticated by the inventors. WM902, WM983, M14, MEL1617, SKMEL28, A375, LOX-IVMI, 501MEL and SKMEL103 cells were cultured in RPMI containing 10% FBS (FBS) and penicillin-streptomycin-glutamine (PSG). HEK293 and MEF cells were maintained in Dulbecco's modified Eagle's medium (DMEM) containing 10% FBS and PSG. […]

Assay [1] concerns M14 or SKMEL28 melanoma cells. The assay is described as follows: MTS assay with the ERK inhibitor, cells with inducible Stag2 knockdown. The assay is classed as cell-based. The settings on record: doxycycline-induced shStag2 #60; 3 days. The protocol: M14 (FIG. 12A) or SKMEL28 (FIG. 12B) melanoma cells expressing pTRIPZ-shStag2 #60 were cultured in the presence or absence of doxycycline (Doxy) for 5 days to induce the expression of Stag2 shRNAs and treated with various concentrations of ERK inhibitor SCH772984 for 3 days, before MTS assays were performed.
as §1, with “(PSG).” for “(PSG). HEK293 and MEF cells were maintained in Dulbecco's modified Eagle's medium (DMEM) containing 10% FBS and PSG.”

For the next assay, the system named is A375 cells. Description: MTS cell viability assay, A375 cells with STAG2 knockdown. The format is cell-based. Conditions: A375 cells expressing STAG2-specific shRNA vs scrambled control shRNA; 3 d. How it is done: FIGS. 2A-2H. […] FIG. 2A, Viability of A375 cells expressing cither a scrambled control shRNA or a STAG2-specific shRNA (shSTAG2 #23), after treatment with varying concentrations of dabrafenib (Dab) for 3 d. Experiment was performed three times. Data are mean±s.e.m. shSTAG2 #23 sequence: […] TTTG; SEQ ID NO. […] 2) FIG. 2B, Representative Western blot analysis of A375 cells that were treated with dabrafenib for 2 hr. Experiment was performed three times. […] Experiment was performed three times. FIG. 2D, Representative Western blot analysis of SKMEL30 cells that were treated with vemurafenib for 2 hr. […] Experiment was performed 3 times. Data are mean±s.e.m. […] Experiment was performed three times. […] Experiment was performed three times. […] Experiment was performed three times.
Experiment was performed 3 times. Data are mean±s.e.m. […] Experiment was performed three times. […] Experiment was performed three times. […] Experiment was performed 3 times. Data are mean±s.e.m. […] Experiment was performed three times. […] Experiment was performed three times. […] Experiment was performed 3 times. […] Experiment was performed 3 times. Data are mean±s.e.m. […] Experiment was performed 3 times.
Background: Formazan colour is commonly taken as a measure of viable cells.

In assay [2] the test system is BRAF-mutant melanoma cells. Description: BRAFi sensitivity after STAG3 knockdown (cell viability and ERK inhibition). The assay is classed as cell-based. Conditions: knockdown of STAG3.
The next assay relates to ERK phosphorylation. The assay is described as follows: Western blot of p-ERK in A375 cells with STAG2 and/or STAG3 knockdown. The assay is classed as cell-based. The settings on record: 2 hr treatment. How it is done: (§2) FIGS. 2A-2H. Knock-down of STAG2 or STAG3 decreases BRAFi sensitivity in BRAF-mutant melanoma cells. FIG. 2A, Viability of A375 cells expressing cither a scrambled control shRNA or a STAG2-specific shRNA (shSTAG2 #23), after treatment with varying concentrations of dabrafenib (Dab) for 3 d. Experiment was performed three times. Data are mean±s.e.m. shSTAG2 #23 sequence: […] TTTG; SEQ ID NO. 1) scramble control shRNA sequence: ([…]: SEQ ID NO. 2) FIG. 2B, Representative Western blot analysis of A375 cells that were treated with dabrafenib for 2 hr. Experiment was performed three times. FIG. 2C, Viability of SKMEL28 cells expressing an inducible STAG2-specific shRNA (shStag2 #60; […]: SEQ ID NO. 3) and cultured in the presence (+Dox) or absence (−Dox) of doxycycline after treatment with varying concentrations of vemurafenib (VEM) for 3 d. Experiment was performed three times. FIG. 2D, Representative Western blot analysis of SKMEL30 cells that were treated with vemurafenib for 2 hr. FIG. 2E, Viability of A375 cells expressing either a scrambled control shRNA or a STAG3-specific shRNA (shSTAG3 #96), after treatment with varying concentrations of dabrafenib for 3 days. Experiment was performed 3 times. Data are mean±s.e.m. […]
(In western blotting, separated proteins are transferred to a membrane and probed.)

Assay [3] has as its system SKMEL28, A375 and M14 cells. The assay is described as follows: Sensitivity of cells with inducible STAG2 shRNA to BRAFi (viability, Western blot). The format is cell-based. The settings on record: inducible expression of an independent shRNA targeting STAG2. How it is done:
as §2

The next assay has as its system melanoma. Description: Melanoma patient treated with BRAFi, relapse. Conditions: one melanoma patient who relapsed. The assay is classed as in vivo, human. The source says: This mutation in STAG2 gene (c.577G>A, resulting in Asp193Asn) was subsequently confirmed by Sanger sequencing. Although the pretreatment sample contains trace amounts of the mutated allele, it is greatly enriched in the post-relapse sample (FIG. 1A). STAG2 (also known as SA2) encodes a core subunit in the cohesin complex that regulates cohesion and segregation of sister chromatids^11,12. […] Stag2 has two other paralogs in mammals, Stag1 and Stag3. […] Sanger sequencing was subsequently performed for all coding exons of STAG2 and STAG3 genes in these cell line pairs and identified a STAG2 nonsense mutation (c.3247A>T, resulting in a change of Lys1083 to a stop codon (Lys1083*)) in WM902BR cells, which was not present in the parental WM902 cells (FIG. 6A). No mutations in STAG3 were identified in this cell line panel. […] STAG3 mutations were detected in post-relapse, but not pre-treatment, samples from an additional six patients from this study (Table 2).
Patient samples and immunohistochemistry (IHC): Patients with metastatic melanoma containing BRAF^Val600 mutations (confirmed by genotyping) were enrolled in clinical trials testing treatment with a BRAF inhibitor alone or in combination with a MEK inhibitor. […] Formalin-fixed tissue was analyzed to confirm that viable tumor was present, using hematoxylin and eosin (H&E) staining. […]

On to `O=C(Nc1ccc2[nH]nc(-c3ccncc3)c2c1)[C@@H]1CCN(CC(=O)N2CCN(c3ccc(-c4ncccn4)cc3)CC2)C1` [SCH772984], for which the “sensitivity of cells in MTS assay” value in the assay on WM902BR cells is “sensitive to inhibition”. Also, the “effect of Stag2 knockdown on sensitivities in MTS assay” value in assay [1] is on record as “does not affect their sensitivities”.
For `CC(C)(C)c1nc(-c2cccc(NS(=O)(=O)c3c(F)cccc3F)c2F)c(-c2ccnc(N)n2)s1` [dabrafenib], the “sensitivity in cell viability assay (MTS)” value with A375 cells is “lower sensitivity”. In assay [2], the “sensitivity with regard to cell viability and ERK inhibition” value is recorded as “decreased sensitivity”. For the same compound, the “ability to inhibit ERK phosphorylation” value in the assay on ERK phosphorylation is “reduction in the ability”. Further, in assay [3], the “sensitivity of cells to BRAFi” value is reported as “decreased the sensitivity”.
Consider `CCCS(=O)(=O)Nc1ccc(F)c(C(=O)c2c[nH]c3ncc(-c4ccc(Cl)cc4)cc23)c1F` [vemurafenib], for which the time-to-disease-progression in the assay with melanoma is listed as 5 months.
